Assay results as given in US7273866B2, “2-aryl thiazole derivatives as KCNQ modulators” (Bristol-Myers Squibb Company, priority 2002, dated 2007).

How the values were obtained:
mKCNQ2 channels = target: T1, mKCNQ2 channels (Mus musculus, UniProt Q9Z351); experiment: KCNQ patch-clamp (whole-cell recordings, HEK 293 stable cell line); format: cell-based; conditions: current of KCNQ2 channels, HEK 293 cells expressing mKCNQ2
T1 construct: expressed in transfected cells
Protocol: KCNQ Patch-clamp. Whole-cell patch-clamp recordings were made from an HEK 293 stable cell line expressing mKCNQ2 channels, maintained in culture for 1-2 days. Patch pipettes had initial resistances of 2.5-4 MΩ. Currents were recorded with an EPC-9 amplifier (HEKA, Lambrecht, Germany) controlled with software (Pulse, HEKA) run on a standard lab PC. Series resistance compensation was used during current recording, and set at 80%. The series resistance (R) and cell capacitance (C) were determined electronically by subtracting the capacitive currents at the onset and offset of a 5 mV voltage step. The cancellation of whole-cell capacitive transients was virtually complete in all cells. Analog current signals were low-pass filtered at 2.9 kHz using a four-pole Bessel filter −3 dB) and stored on a local network server computer at a sampling rate of […]. All recordings were performed at room temperature (20-22° C.). The pipette solution contained (mM) KCl, 150; CaCl2, 2.5; EGTA, 5; MgCl2, 1; HEPES, 10; pH to 7.3 with KOH, and Osmolality of 290-300 mOsm. The extracellular solution contained (mM): NaCl, 140; KCl, 2.5; CaCl2, 2.5; MgCl2, 1; glucose, 10; HEPES, 10; pH to 7.3 with NaOH, and Osmolality of 305-310 mOsm. […]

[1] = tested on: systemic polyneuropathy nerve injury-induced tactile allodynia; experiment: Diabetic model of neuropathic pain (Streptozoticin & von Frey test); format: in vivo, Sprague Dawley rats; conditions: 10 mg/kg, i.v.; STZ diabetic rats, von Frey thresholds over 90 min
Protocol: Diabetic model of neuropathic pain (Streptozoticin & von Frey test). To test agents for activity against systemic polyneuropathy nerve injury-induced tactile allodynia, animals were treated with streptozoticin (STZ) to create a diabetic condition by selective cytotoxic action upon pancreatic β-islet cells that produce insulin following the method of Courteix, et al. (Courteix C., et al., (1993) Pain, April; 53(1):81-8). In brief, male Sprague Dawley rats (wt. 200-275 g) received an injection of STZ (75 mg/kg, i.p.) and diabetes was confirmed three weeks after STZ injection by measurement of tail vein blood glucose levels. After 3-4 weeks, paw withdrawal to light touch was assessed as described by Chaplan et al. (Chaplan S. R., et al., (1994) J Neurosci Methods, July; 53(1):55-63). In brief, rats are placed in a plastic cage with a wire mesh bottom and allowed to acclimate for 15-30 minutes, until cage exploration and grooming stops. […] After acclimation, baseline von Frey thresholds were assessed for the injured hindpaw at −15 min. […] Following drug administration, von Frey thresholds were measured at 15, 30, 60 and 90 min. Data were analyzed by a 2-way repeated measures analysis of variance followed by Dunnett's test (p<0.05). […]

[2] = tested on: peripheral mononeuropathy nerve injury-induced tactile allodynia; experiment: Chung model of neuropathic pain (Chung surgery and von Frey test); format: in vivo, Sprague Dawley rats; conditions: 10 mg/kg, i.v.; von Frey thresholds over 90 min, rat
Protocol: Chung model of neuropathic pain (Chung surgery and von Frey test). To test agents for activity against peripheral mononeuropathy nerve injury-induced tactile allodynia, male Sprague Dawley rats (wt. 120-160 g) were surgically prepared with unilateral tight ligation of spinal nerves L5 and L6 following the method of Kim and Chung (Kim S. H., Chung J. M. (1992) Pain, September; 50(3):355-63). After 3-4 weeks recovery, paw withdrawal to light touch was assessed as described by Chaplan et al. (Chaplan S. R., et al., (1994) J. Neurosci Methods, July; 53(1):55-63). […] After acclimation, baseline von Frey thresholds were assessed for the injured hindpaw at −15 min. […] Following drug administration, von Frey thresholds were measured at 15, 30, 60 and 90 min. Data were analyzed by a 2-way repeated measures analysis of variance followed by Dunnett's test (p<0.05). […]
Reversal of neuropathic pain behavior may be expressed as a percentage (0-100%) of the maximum possible effect, over and above the vehicle effects. […]
For example, a compound which immediately reversed neuropathic pain behavior to normal levels, such that animals only responded to the highest von Frey filament (15 g), and maintained normal levels through out the post-drug testing period (90 min) would be calculated as Δ% MPE=100%.

EC50 (mKCNQ2 channels): 3 nM
Compound: CC(NC(=O)c1sc(-c2ccccc2F)nc1C(F)(F)F)c1cccc(OC(F)(F)F)c1 (stereo not drawn) [Example 21, 2-(2-fluorophenyl)-4-(trifluoromethyl)-N-[1-[3-(trifluoromethoxy)phenyl]ethyl]-5-thiazolecarboxamide]
AUC (Δ % MPE) [1]: 28 (10 mg/kg, i.v.) Δ % MPE
AUC (Δ % MPE) [2]: 28 (10 mg/kg, i.v.) Δ % MPE
